Reference: ChEMBL document CHEMBL1147306, “Studies on inhibitors of skin tumor promotion, VI. Inhibitory effects of quinones on Epstein-Barr virus activation” (J Nat Prod, 1989)

How the values were obtained:
Type in all cases: cell-based
[1] = tested on: Raji; assay: Inhibition of TPA-induced EBV-early antigen activation in human Raji cells at 10 molar ratio after 48 hrs by indirect immunofluorescence technique relative to TPA; details: human gammaherpesvirus 4
[2] = Cytotoxicity against human Raji cells assessed as cell viability at 1000 molar ratio; details: read-out: Activity
[3] = Cytotoxicity against human Raji cells assessed as cell viability at 100 molar ratio; details: read-out: Activity
[4] = Cytotoxicity against human Raji cells assessed as cell viability at 500 molar ratio; details: read-out: Activity
[5] = Cytotoxicity against human Raji cells assessed as cell viability at 10 molar ratio; details: read-out: Activity
[6] = tested on: Raji; assay: Inhibition of TPA-induced EBV-early antigen activation in human Raji cells at 500 molar ratio after 48 hrs by indirect immunofluorescence technique relative to TPA; details: human gammaherpesvirus 4
[7] = tested on: Raji; assay: Inhibition of TPA-induced EBV-early antigen activation in human Raji cells at 100 molar ratio after 48 hrs by indirect immunofluorescence technique relative to TPA; details: human gammaherpesvirus 4

Compound	EBV-EA activation % of TPA control [1] [%]	viability at 1000 molar ratio [2] [%]	viability at 100 molar ratio [3] [%]	viability at 500 molar ratio [4] [%]	viability at 10 molar ratio [5] [%]	EBV-EA activation % of TPA control [6] [%]	EBV-EA activation % of TPA control [7] [%]
COCc1c(O)cc2c(c1O)C(=O)c1cccc(O)c1C2=O	100	> 80	> 80	> 80	> 80	21	51.8
Cc1ccnc2c1C(O)c1ccccc1-2 (centres undefined)	100	> 80	> 80	> 80	> 80	100	100
CC1=CC(=O)c2ccccc2C1=O [MENADIONE]	89.4	0	70	0	> 80	0	65.7
COc1c(C=O)c(O)cc2c1C(=O)c1ccccc1C2=O [DAMNACANTHAL]	100	60	> 80	> 80	> 80	51.6	92.8
O=C1c2ccccc2C(=O)c2c1ccc(O)c2O [ATHRAQUINONES A]	100	60	> 80	> 80	> 80	92.4	100
Cc1ccnc2c1C(=O)c1cccc(O)c1C2=O	89.1	40	> 80	60	> 80	15.4	67.4
O=C1C=CC(=O)c2cc(O)ccc21	92.3	10	60	60	> 80	0	67.2
O=C1c2ccccc2C(=O)c2occc21	59.4	0	10	10	70	0	0
CN(C)C1=CC(=O)c2cccc(O)c2C1=O	100	> 80	> 80	> 80	> 80	53.8	89.7
O=C1c2ccccc2-c2ncccc21	100	70	> 80	> 80	> 80	97.6	100
Cc1cnc2c(c1)C(=O)c1cccc(O)c1C2=O	100	30	60	> 80	> 80	15.8	72.4
CN(C)C1=CC(=O)c2c(O)ccc(O)c2C1=O	100	50	> 80	> 80	> 80	28.2	87.2
CN(C)C1=CC(=O)c2ccccc2C1=O	100	> 80	> 80	> 80	> 80	89.2	92.5
O=C1c2ccccc2C(=O)c2c(O)c(O)cc(O)c21 [PURPURIN]	100	70	> 80	> 80	> 80	54.3	100
COc1ccc(OC)c2c1C(=O)c1nccc(C)c1C2=O	100	70	> 80	> 80	> 80	100	100
Cc1ccnc2c1C(=O)c1ccccc1-2 [ONYCHINE]	100	70	> 80	> 80	> 80	94.1	100

Compound	EBV-EA activation % of TPA control [1] [%]	viability at 1000 molar ratio [2] [%]	viability at 100 molar ratio [3] [%]	viability at 500 molar ratio [4] [%]	viability at 10 molar ratio [5] [%]	EBV-EA activation % of TPA control [6] [%]	EBV-EA activation % of TPA control [7] [%]
CN(C)C1=CC(=O)c2cc(O)ccc2C1=O	100	60	> 80	> 80	> 80	68.5	100
CC1C=CNC2=C1C(=O)c1cc(O)ccc1C2=O (centres undefined)	100	70	> 80	> 80	> 80	62.1	66.7
O=C1c2ccccc2C(=O)c2sccc21 [THIOPHENONAPHTHOQUINONE]	81.4	0	70	0	> 80	0	52.8
COc1ccc2c(c1)C(=O)c1ccc3c(c1C2=O)OCO3	100	70	> 80	> 80	> 80	56.8	78.9
O=C1C=CC(=O)c2ccccc21 [NAPHTHOQUINONE]	100	20	50	50	> 80	0	37.5
COc1c(CO)c(O)cc2c1C(=O)c1cccc(O)c1C2=O [JUZUNOL]	100	> 80	> 80	> 80	> 80	100	100
O=C1c2ccc(O)c(O)c2C(=O)c2c(O)ccc(O)c21 [QUINALIZARIN]	100	40	> 80	60	> 80	0	88.4
COc1cccc2c1C(=O)c1c(ccc3c1OCO3)C2=O	100	60	> 80	> 80	> 80	57.6	82.5
O=C1C=CC(=O)c2c(O)ccc(O)c21 [NAPHTHAZALIN]	68.9	20	50	40	> 80	0	0
Cc1cc(O)c2c(c1)C(=O)c1cc(O)cc(O)c1C2=O [EMODIN]	100	> 80	> 80	> 80	> 80	54.2	91.1
CN(C)C1=CC(=O)c2c(O)cccc2C1=O	89.2	> 80	> 80	> 80	> 80	60.5	61.5
O=C1C=CC(=O)c2c(O)cccc21 [JUGLONE]	100	40	> 80	60	> 80	13.1	97.8
CC1=C(C/C=C(\C)CCC[C@H](C)CCC[C@H](C)CCCC(C)C)C(=O)c2ccccc2C1=O [PHYTONADIONE]	100	70	> 80	> 80	> 80	100	100
Cc1cnc2c(c1)C(=O)c1c(O)ccc(O)c1C2=O	100	40	> 80	50	> 80	16.8	82.6
Cc1ccc2c(n1)C(=O)c1c(O)cccc1C2=O	92.4	10	> 80	50	> 80	17.3	56.8
CC1(c2cc3c(o2)C(=O)c2ccccc2C3=O)OCCO1	32.4	0	10	10	60	0	0
